Experimental data published in patent US20170065593A1, “Combination” (Novartis AG, priority 2009, published 2017).
Read-outs that look alike come from different tables or passages of the source.

What was measured:
NCI-H1155 = test: Cell growth inhibition assay (Cell Titer Glo, 3 days); format: cell-based, Human; settings: NCI-H1155 (KRAS_Q61H), single agent, mean ± std
Description: (§1) Human tumor cell lines from lung cancer, A427, A549, Calu1, Calu3, Calu6, COR-L23, HOP62, MV522, NCI-H1155, NCI-H1299, NCI-H1355, NCI-H1395, NCI-H157, NCI-H1573, NCI-H1666, NCI-1755, NCI-H1792, NCI-2009, NCI-H2030, NCI-H2122, NCI-H2291, NCI-H23, NCI-H2347, NCI-H358, NCI-H441, NCI-H460, NCI-H650, NCI-H727, SW1573 and SW900 were cultured in RPMI 1640 medium containing 10% fetal bovine serum (FBS). Cell line mutation data was collated for the status for the RAS and RAF genes. The data source is the cancer cell line mutation screening data published as part of the Catalog of Somatic Mutations in Cancer database (COSMIC) (Bamford S. et al. Br. J. Cancer. 2004. 91:355-58) and/or in house DNA sequencing.
(§2) Cells were seeded in a 96-well tissue culture plate (NUNC 136102) of RPMI medium containing 10% FBS at 500-2,000 cells per well. Approximately 24 hours after plating, cells were exposed to ten, two-fold or three-fold serial dilutions of either Compound A or B or the combination of the two agents at a 10:1 molar ratio (Compounds A and B respectively). The final dosing concentration range for Compound A was 2-1000 nM and was 0.2-100 nM for Compound B. Cells were incubated in the presence of compounds for 3 days. ATP levels were determined by adding Cell Titer Glo® (Promega) according to the manufacturer's protocol. Briefly, Cell Titer Glo® was added to each plate, incubated for 20 minutes then luminescent signal was read on the SpectraMax L plate reader with a 0.5 sec integration time. All assays were run at least in duplicate.
(§3) Inhibition of cell growth was estimated after treatment with compound or combination of compounds for three days and comparing the signal to cells treated with vehicle (DMSO). Cell growth was calculated relative to vehicle (DMSO) treated control wells. Concentration of compound that inhibits 50% of control cell growth (IC50) was back-interpolated when y=50% of DMSO treated control wells using nonlinear regression with the equation: […]

NCI-H1792 = test: as above; format: cell-based, Human; settings: NCI-H1792 (KRAS_G12C), single agent, mean ± std
Description: as §1, §2, §3

NCI-H1573 = test: as above; format: cell-based, Human; settings: NCI-H1573 (KRAS-G12A), single agent, mean ± std
Description: as §1, §2, §3

NCI-H460 = test: as above; format: cell-based, Human; settings: NCI-H460 (KRAS_Q61H), single agent, mean ± std
Description: as §1, §2, §3

SW900 = test: as above; format: cell-based, Human; settings: SW900 (KRAS_G12V), single agent, mean ± std
Description: as §1, §2, §3

NCI-H1395 = test: as above; format: cell-based, Human; settings: NCI-H1395 (BRAF_G469A), single agent, mean ± std
Description: as §1, §2, §3

NCI-H2347 = test: as above; format: cell-based, Human; settings: NCI-H2347 (RAS_H, N_Q61R), single agent, mean ± std
Description: as §1, §2, §3

CORL23 = test: as above; format: cell-based, Human; settings: CORL23 (KRAS_G12V), single agent, mean ± std
Description: as §1, §2, §3

NCI-H23 = test: as above; format: cell-based, Human; settings: NCI-H23 (KRAS_G12C), single agent, mean ± std
Description: as §1, §2, §3

NCI-H727 = test: as above; format: cell-based, Human; settings: NCI-H727 (KRAS_G12V), single agent, mean ± std
Description: as §1, §2, §3

HOP62 = test: as above; format: cell-based, Human; settings: HOP62 (KRAS_G12C), single agent, mean ± std
Description: as §1, §2, §3

Calu6 = test: as above; format: cell-based, Human; settings: Calu6 (KRAS_Q61K), single agent, mean ± std
Description: as §1, §2, §3

NCI-H650 = test: as above; format: cell-based, Human; settings: NCI-H650 (KRAS_Q61L), single agent, mean ± std
Description: as §1, §2, §3

NCI-H2030 = test: as above; format: cell-based, Human; settings: NCI-H2030 (KRAS_G12C), single agent, mean ± std
Description: as §1, §2, §3

NCI-H2009 = test: as above; format: cell-based, Human; settings: NCI-H2009 (KRAS-G12A), single agent, mean ± std
Description: as §1, §2, §3

SW1573 = test: as above; format: cell-based, Human; settings: SW1573 (KRAS_G12C), single agent, mean ± std
Description: as §1, §2, §3

A549 = test: as above; format: cell-based, Human; settings: A549 (KRAS_G12S), single agent, mean ± std
Description: as §1, §2, §3

NCI-H157 = test: as above; format: cell-based, Human; settings: NCI-H157 (KRAS_G12R), single agent, mean ± std
Description: as §1, §2, §3

A427 = test: as above; format: cell-based, Human; settings: A427 (KRAS_G12D), single agent, mean ± std
Description: as §1, §2, §3

[1] = test system: panel of 29 human lung tumor cell lines; test: Cell growth inhibition, summary over the panel; format: cell-based; settings: out of 29 lines; single agent
Description: as §1
Cells were seeded in a 96-well tissue culture plate (NUNC 136102) of RPMI medium containing 10% FBS at 500-2,000 cells per well. […] ATP levels were determined by adding Cell Titer Glo® (Promega) according to the manufacturer's protocol. Briefly, Cell Titer Glo® was added to each plate, incubated for 20 minutes then luminescent signal was read on the SpectraMax L plate reader with a 0.5 sec integration time. […]
Inhibition of cell growth was estimated after treatment with compound or combination of compounds for three days and comparing the signal to cells treated with vehicle (DMSO). Cell growth was calculated relative to vehicle (DMSO) treated control wells. […]

[2] = Homo sapiens, 72 h, read-out: IC50 Single Agent Compound B
[3] = read-out: IC50 Single Agent Compound A

CO[C@H]1C[C@@H]2CC[C@@H](C)[C@@](O)(O2)C(=O)C(=O)N2CCCC[C@H]2C(=O)O[C@H]([C@H](C)C[C@@H]2CC[C@@H](OCCO)[C@H](OC)C2)CC(=O)[C@H](C)/C=C(\C)[C@@H](O)[C@@H](OC)C(=O)[C@H](C)C[C@H](C)/C=C/C=C/C=C/1C [Compound B, everolimus]
IC50 (NCI-H1155; [2]): > 100 nM
IC50 (NCI-H1792; [2]): > 100 nM
IC50 (NCI-H1573; [2]): > 100 nM
IC50 (NCI-H460; [2]): > 70 nM
IC50 (SW900; [2]): > 100 nM
IC50 (NCI-H1395; [2]): > 100 nM
IC50 (NCI-H2347; [2]): > 100 nM
IC50 (CORL23; Homo sapiens, COR-L23, 72 h, read-out: IC50 Single Agent Compound B): > 100 nM
IC50 (NCI-H23; [2]): > 100 nM
IC50 (NCI-H727; [2]): > 100 nM
IC50 (HOP62; Homo sapiens, HOP-62, 72 h, read-out: IC50 Single Agent Compound B): > 100 nM
IC50 (Calu6; Homo sapiens, Calu-6, 72 h, read-out: IC50 Single Agent Compound B): > 100 nM
IC50 (NCI-H650; [2]): > 100 nM
IC50 (NCI-H2030; [2]): > 10 nM
IC50 (NCI-H2009; [2]): > 100 nM
IC50 (SW1573; [2]): > 100 nM
IC50 (A549; [2]): 3 ± 3 nM
IC50 (NCI-H157; [2]): > 100 nM
IC50 (A427; Homo sapiens, A-427, 72 h, read-out: IC50 Single Agent Compound B): > 100 nM
number of lines sensitive (IC50s<100 nM) [1]: 2

N-{3-[3-cyclopropyl-5-(2-fluoro-4-iodo-phenylamino)6,8-dimethyl;-2,4,7-trioxo-3,4,6,7-tetrahydro-2H-pyrido[4,3-d]pyrimidin-1-yl]phenyl}acetamide [Compound A]
IC50 (NCI-H1155; [3]): > 1000 nM
IC50 (NCI-H1792; [3]): 59 ± 23 nM
IC50 (NCI-H1573; [3]): 82 ± 11 nM
IC50 (NCI-H460; [3]): 37 ± 11 nM
IC50 (SW900; [3]): 141 ± 2 nM
IC50 (NCI-H1395; [3]): > 1000 nM
IC50 (NCI-H2347; [3]): 7 ± 2 nM
IC50 (CORL23; [3]): 989 ± 86 nM
IC50 (NCI-H23; [3]): 31 ± 2 nM
IC50 (NCI-H727; [3]): 3 ± 1 nM
IC50 (HOP62; [3]): > 1000 nM
IC50 (Calu6; [3]): 5 nM
IC50 (NCI-H650; [3]): 4 ± 2 nM
IC50 (NCI-H2030; [3]): > 1000 nM
IC50 (NCI-H2009; [3]): 204 ± 78 nM
IC50 (SW1573; [3]): > 1000 nM
IC50 (A549; [3]): 32 ± 9 nM
IC50 (NCI-H157; [3]): > 1000 nM
IC50 (A427; [3]): 95 ± 68 nM
number of lines sensitive (IC50s<100 nM) [1]: 17
